Laboratory results taken from US8741906B2 (priority 2011, dated 2014).
pEC50: −log10 of the molar value. Like-named read-outs stand apart in the source and are kept apart here.

How the values were obtained:
human CB2 receptors = biological target: T1, human CB2 receptors (Homo sapiens, UniProt P34972); assay: functional cAMP assay, human CB2; format: cell-based; settings: CHO cells expressing human CB2, cAMP; read-out: human CB2 EC50
T1 construct: expressed in transfected cells; host or cells: CHO cells
How it was run: (§1)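 CHO cells expressing human CB1 or CB2 were preincubated 30 min at 30 °C in Krebs Ringer bicarbonate with 1 mM IBMX, then exposed to compound 30 min at 30 °C. cAMP quantified by TR-FRET competition (Alexa700 antibody/ruthenium-cAMP) against a 10 μM–0.13 nM standard curve; EC50 derived.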

human CB1 receptors = biological target: T2, human CB1 receptors (Homo sapiens, UniProt P21554); assay: functional cAMP assay, human CB1; format: cell-based
T2 construct: expressed in transfected cells; host or cells: CHO cells
How it was run: as §1

[1] = CHO cells expressing human CB1, cAMP, read-out: human CB1 EC50

T2 sequence (P21554 whole entry): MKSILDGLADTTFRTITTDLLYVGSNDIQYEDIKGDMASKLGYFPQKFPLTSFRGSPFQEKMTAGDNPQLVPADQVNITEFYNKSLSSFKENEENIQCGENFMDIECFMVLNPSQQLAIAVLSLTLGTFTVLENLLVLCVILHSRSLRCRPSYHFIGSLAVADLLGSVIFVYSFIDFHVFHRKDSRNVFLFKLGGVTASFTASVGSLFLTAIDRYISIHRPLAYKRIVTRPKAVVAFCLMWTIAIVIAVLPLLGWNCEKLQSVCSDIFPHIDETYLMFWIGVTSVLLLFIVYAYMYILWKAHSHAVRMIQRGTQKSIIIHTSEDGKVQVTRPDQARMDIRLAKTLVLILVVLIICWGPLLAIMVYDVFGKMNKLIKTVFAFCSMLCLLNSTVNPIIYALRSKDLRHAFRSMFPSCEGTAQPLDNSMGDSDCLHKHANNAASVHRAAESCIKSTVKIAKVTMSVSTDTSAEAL
T1 sequence (P34972 whole entry): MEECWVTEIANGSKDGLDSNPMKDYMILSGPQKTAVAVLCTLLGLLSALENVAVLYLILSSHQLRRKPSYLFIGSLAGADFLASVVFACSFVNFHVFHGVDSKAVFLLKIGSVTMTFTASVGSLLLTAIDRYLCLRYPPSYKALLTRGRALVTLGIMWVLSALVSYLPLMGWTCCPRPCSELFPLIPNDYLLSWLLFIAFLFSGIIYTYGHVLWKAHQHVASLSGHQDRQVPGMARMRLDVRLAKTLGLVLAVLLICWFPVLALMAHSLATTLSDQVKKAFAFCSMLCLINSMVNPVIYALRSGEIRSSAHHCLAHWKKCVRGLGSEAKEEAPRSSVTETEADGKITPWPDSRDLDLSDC

SMILES | pEC50 (human CB2 receptors) | pEC50 (human CB1 receptors; [1]) | pEC50 (human CB1 receptors)
Cc1nnc(Cn2nnc3c(N4CC[C@H](O)C4)nc(C(C)(C)C)nc32)n1C [Example 153, (S)-1-[5-tert-Butyl-3-(4,5-dimethyl-4H-[1,2,4]triazol-3-ylmethyl)-3H-[1,2,3]triazolo[4,5-d]pyrimidin-7-yl]-pyrrolidin-3-ol] | 7.92 | < 5.00 | 
COc1ccc(Cn2nnc3c(N4CC[C@H](O)C4)nc(C(C)(C)C)nc32)cc1 [Example 106, (S)-1-[5-tert-Butyl-3-(4-methoxy-benzyl)-3H-[1,2,3]triazolo[4,5-d]pyrimidin-7-yl]-pyrrolidin-3-ol] | 8.32 | < 5.00 | 
COC(=O)C1CN(c2nc(C(C)(C)C)nc3c2nnn3Cc2ccccc2Cl)C1 [Example 197, 1-[5-tert-Butyl-3-(2-chloro-benzyl)-3H-[1,2,3]triazolo[4,5-d]pyrimidin-7-yl]-azetidine-3-carboxylic acid methyl ester] | 6.59 |  | < 5.00
CC(C)(C)c1nc(N2CCC(F)(F)C2)c2nnn(Cc3cccnc3Cl)c2n1 [Example 97, 5-tert-Butyl-3-(2-chloro-pyridin-3-ylmethyl)-7-(3,3-difluoro-pyrrolidin-1-yl)-3H-[1,2,3]triazolo[4,5-c]pyrimidine] | 10.00 | 7.21 | 
Cn1nncc1Cn1nnc2c(N3CC[C@H](O)C3)nc(C(C)(C)C)nc21 [Example 154, (S)-1-[5-tert-Butyl-3-(3-methyl-3H-[1,2,3]triazol-4-ylmethyl)-3H-[1,2,3]triazolo[4,5-d]pyrimidin-7-yl]-pyrrolidin-3-ol] | 8.60 | < 5.00 | 
CC(C)(C)c1nc(N2CCC(F)(F)C2)c2nnn(Cc3cc(Cl)ccc3Cl)c2n1 [Example 69, 5-tert-Butyl-3-(2,5-dichloro-benzyl)-7-(3,3-difluoro-pyrrolidin-1-yl)-3H-[1,2,3]triazolo[4,5-d]pyrimidine] | 9.52 | 6.56 | 
CC(C)(C)c1nc(N2CC[C@](C)(O)C2)c2nnn(Cc3ccccc3S(C)(=O)=O)c2n1 [Example 223-a, (S)-1-(5-tert-butyl-3-(2-(methylsulfonyl)benzyl)-3H-[1,2,3]triazolo[4,5-d]pyrimidin-7-yl)-3-methylpyrrolidin-3-ol] | 9.40 | 6.62 | 
CC(C)(C)c1nc(N2CCCS2(=O)=O)c2nnn(Cc3ccccc3Cl)c2n1 [Example 47, 5-tert-Butyl-3-(2-chloro-benzyl)-7-(1,1-dioxo-1λ6-isothiazolidin-2-yl)-3H-[1,2,3]triazolo[4,5-d]pyrimidine] | 7.69 | < 5.00 | 
Cn1nncc1Cn1nnc2c(N3CCC(F)(F)C3)nc(C(C)(C)C)nc21 [Example 145, 5-tert-Butyl-7-(3,3-difluoro-pyrrolidin-1-yl)-3-(3-methyl-3H-[1,2,3]triazol-4-ylmethyl)-3H-[1,2,3]triazolo[4,5-d]pyrimidine] | 9.70 | 5.65 | 
CCNc1nc(C(C)(C)C)nc2c1nnn2Cc1ccccc1Cl [Example 7, [5-tert-Butyl-3-(2-chloro-benzyl)-3H-[1,2,3]triazolo[4,5-d]pyrimidin-7-yl]-ethyl-amine] | 7.95 | < 5.00 | 
CC(C)(C)c1nc(N2CC[C@@](C)(O)C2)c2nnn(Cc3ncccc3Cl)c2n1 [Example 224-b, (R)-1-(5-tert-butyl-3-((3-chloropyridin-2-yl)methyl)-3H-[1,2,3]triazolo[4,5-d]pyrimidin-7-yl)-3-methylpyrrolidin-3-ol] | 8.19 | < 5.00 | 
CC(C)(C)c1nc(N2CCC(F)(F)C2)c2nnn(Cc3cccc(Cl)c3Cl)c2n1 [Example 67, 5-tert-Butyl-3-(2,3-dichloro-benzyl)-7-(3,3-difluoro-pyrrolidin-1-yl)-3H-[1,2,3]triazolo[4,5-d]pyrimidine] | 9.70 | 6.79 | 
CC(C)(C)c1nc(N2CCC(O)CC2)c2nnn(Cc3ccccc3Cl)c2n1 [Example 32, 1-[5-tert-Butyl-3-(2-chloro-benzyl)-3H-[1,2,3]triazolo[4,5-d]pyrimidin-7-yl]-piperidin-4-ol] | 7.68 | < 5.00 | 
CN(C)C1CCN(c2nc(C(C)(C)C)nc3c2nnn3Cc2ccccc2Cl)C1 (stereo not shown) [Example 191, {1-[5-tert-Butyl-3-(2-chloro-benzyl)-3H-[1,2,3]triazolo[4,5-d]pyrimidin-7-yl]-pyrrolidin-3-yl}-dimethyl-amine] | 6.76 |  | < 5.00
CC(C)(C)c1nc(N2CCC(F)(F)C2)c2nnn(CCc3cccc(Cl)c3)c2n1 [Example 104, 5-tert-Butyl-3-[2-(3-chloro-phenyl)-ethyl]-7-(3,3-difluoro-pyrrolidin-1-yl)-3H-[1,2,3]triazolo[4,5-d]pyrimidine] | 9.05 | < 5.00 | 
Cc1nc(Cn2nnc3c(N4CC[C@H](O)C4)nc(C(C)(C)C)nc32)no1 [Example 149, (S)-1-[5-tert-Butyl-3-(5-methyl-[1,2,4]oxadiazol-3-ylmethyl)-3H-[1,2,3]triazolo[4,5-d]pyrimidin-7-yl]-pyrrolidin-3-ol] | 7.76 | < 5.00 | 
CC(=O)N[C@@H]1CCN(c2nc(C(C)(C)C)nc3c2nnn3Cc2ccccc2Cl)C1 [Example 193, N-{(R)-1-[5-tert-Butyl-3-(2-chloro-benzyl)-3H-[1,2,3]triazolo[4,5-d]pyrimidin-7-yl]-pyrrolidin-3-yl}-acetamide] | 6.23 | < 5.00 | 
CC(C)(C)c1nc(N2CCC(F)(F)C2)c2nnn(CCO)c2n1 [Example 63, 2-[5-tert-Butyl-7-(3,3-difluoro-pyrrolidin-1-yl)-[1,2,3]triazolo[4,5-d]pyrimidin-3-yl]-ethanol] | 7.74 | < 5.00 | 
Cc1c(Cn2nnc3c(N4CC[C@H](O)C4)nc(C(C)(C)C)nc32)ccc[n+]1[O-] [Example 162, (S)-1-[5-tert-Butyl-3-(2-methyl-1-oxy-pyridin-3-ylmethyl)-3H-[1,2,3]triazolo[4,5-d]pyrimidin-7-yl]-pyrrolidin-3-ol] | 7.56 | < 5.00 | 
CC(C)(C)c1nc(N2CC[C@](C)(O)C2)c2nnn(CCC(F)(F)F)c2n1 [Example 229-a, (S)-1-(5-tert-butyl-3-(3,3,3-trifluoropropyl)-3H-[1,2,3]triazolo[4,5-d]pyrimidin-7-yl)-3-methylpyrrolidin-3-ol] | 7.52 | < 5.00 | 
CC(C)(C)c1nc(N2CCOCC2)c2nnn(Cc3ccc(F)cc3Cl)c2n1 [Example 59, 5-tert-Butyl-3-(2-chloro-4-fluoro-benzyl)-7-morpholin-4-yl-3H-[1,2,3]triazolo[4,5-d]pyrimidine] | 8.64 | < 5.00 | 
CC(C)(C)c1nc(N2CCC(F)(F)C2)c2nnn(Cc3ccccc3Br)c2n1 [Example 79, 3-(2-Bromo-benzyl)-5-tert-butyl-7-(3,3-difluoro-pyrrolidin-1-yl)-3H-[1,2,3]triazolo[4,5-d]pyrimidine] | 10.00 | 7.08 | 
Cc1nnc(Cn2nnc3c(N4CC[C@H](O)[C@@H]4CO)nc(C(C)(C)C)nc32)n1C [Example 170, (2S,3S)-1-[5-tert-Butyl-3-(4,5-dimethyl-4H-[1,2,4]triazol-3-ylmethyl)-3H-[1,2,3]triazolo[4,5-d]pyrimidin-7-yl]-2-hydroxymethyl-pyrrolidin-3-ol] | 6.71 |  | < 5.00
